Converted amounts (≈) assume the structure as drawn. Where two headings read alike, the source gives them in different places.
Columns and labels:
[1] = In vivo tissue distribution test; set-up: species or system ICR mice; conditions: mouse, po; for Kp: ICR, 100 mg/kg
Description: An in vivo tissue distribution test was performed in order to confirm the degree of drug distribution of the L-aspartate and hydrochloride according to the present invention in each organ. After 8-week-old ICR mice were purchased and adapted in the laboratory, each salt was orally administered to the mouse at a dose of 100 mg/kg. The mice were bled and sacrificed at a predetermined time and each organ was drawn to measure the concentration in each organ. After the administration of hydrochloride and L-aspartate, each organ concentration over time, the area under the corresponding time-concentration curve, and the ratio of permeation into tissue were shown in Tables 5 and 6.
Then, P ratio is a ratio of permeation into muscle and calculated as intramuscular AUC/intraplasmic AUC.

[2] = Stability test in distilled water; type: physicochemical; conditions: 30 mg in 100 ml distilled water
[3] = test system: Male ICR mice; assay: Single dose toxicity in mice (LD50); conditions: single intraperitoneal dose, observed 14 days
Description: The following experiment was performed in order to observe the degree of toxicity of the L-aspartate according to the present invention.
Male ICR mice were used as experimental animals. 5 male ICR mice were divided into 6 dose groups, respectively and fasted except for water for 24 hours.

[4] = In vivo tissue distribution test; set-up: species or system ICR mice; conditions: ICR, mouse, spleen, po, 100 mg/kg; read-out: P ratio Spleen
[5] = In vivo pharmacokinetic test; set-up: species or system SD rats; conditions: rats
Source text: The L-aspartate and hydrochloride according to the present invention were orally or intravenously administered to SD rats, respectively and blood samples were collected at a predetermined time to compare in vivo pharmacokinetics.
Then, Cmax: maximum drug concentration, Tmax: maximum drug concentration time, T1/2: drug half-life, AUCO-t: area under the plasma concentration-time curve from time zero to t hours, and AUCO-inf: area under the plasma concentration-time curve from time zero to infinity.

[6] = Solubility test; type: physicochemical
[7] = test system: polychromatic erythrocyte with one or more nuclei (MNPCE); assay: In vivo genotoxicity, micronucleus test; conditions: male mice, twice intraperitoneal, 30, 15, 7.5 mg/kg
Source text: The following study performed to obtain in vivo genotoxicities, micronucleus test of L-aspartate and hydrochloric acid salt in male mice to the following procedure.

[8] = male, testicle, ICR mice, p.o. 100 mg/kg, read-out: Testicle concentration
[9] = brain, ICR mice, p.o. 100 mg/kg, read-out: Brain concentration
[10] = heart, ICR mice, p.o. 100 mg/kg, read-out: Heart concentration
[11] = kidney, ICR mice, p.o. 100 mg/kg, read-out: Kidney concentration
[12] = liver, ICR mice, p.o. 100 mg/kg, read-out: Liver concentration
[13] = lung, ICR mice, p.o. 100 mg/kg, read-out: Lung concentration
[14] = muscle, ICR mice, p.o. 100 mg/kg, read-out: Muscle concentration
[15] = plasma, ICR mice, p.o. 100 mg/kg, read-out: Plasma concentration
[16] = spleen, ICR mice, p.o. 100 mg/kg, read-out: Spleen concentration
[17] = testicle, ICR mice, p.o. 100 mg/kg, read-out: Testicle concentration
[18] = thymus, ICR mice, p.o. 100 mg/kg, read-out: Thymus concentration
[19] = SD, rat, plasma, iv, i.v. 10 mg/kg
[20] = SD, rat, plasma, po, p.o. 100 mg/kg

CO/N=C1/CN(c2nc3c(cc2F)c(=O)c(C(=O)O)cn3C2CC2)C[C@@]1(C)CN [L-aspartate (Example 1)]
Kp ([1]; brain, read-out: P ratio Brain): 0.27
Kp ([1]; heart, read-out: P ratio Heart): 4.28
Kp ([1]; kidney, read-out: P ratio Kidney): 7.44
Kp ([1]; liver, read-out: P ratio Liver): 11.2
Kp ([1]; lung, read-out: P ratio Lung): 6.01
Kp ([1]; muscle, read-out: P ratio Muscle): 3.87
Kp ([1]; thymus, read-out: P ratio Thymus): 4.96
Kp ([1]; male, testicle, read-out: P ratio Testicle): 1.75
concentration at 0.5 h [1, 8]: 4940 ng/g
concentration at 1 h [1, 8]: 8820 ng/g
concentration at 8 h [1, 8]: 6970 ng/g
concentration at 0.5 h [1, 9]: 2280 ng/g
concentration at 1 h [1, 9]: 2550 ng/g
concentration at 1.5 h [1, 9]: 2340 ng/g
concentration at 2 hr [1, 9]: 2570 ng/g
concentration at 3 h [1, 9]: 2020 ng/g
concentration at 5 h [1, 9]: 1520 ng/g
concentration at 8 h [1, 9]: 330 ng/g
concentration at 0.5 h [1, 10]: 47200 ng/g
concentration at 1 h [1, 10]: 58000 ng/g
concentration at 1.5 hr [1, 10]: 50000 ng/g
concentration at 2 hr [1, 10]: 36700 ng/g
concentration at 3 h [1, 10]: 27700 ng/g
concentration at 5 h [1, 10]: 1330 ng/g
concentration at 8 h [1, 10]: 8720 ng/g
concentration at 0.5 h [1, 11]: 79200 ng/g
concentration at 1 h [1, 11]: 79200 ng/g
concentration at 1.5 h [1, 11]: 77400 ng/g
concentration at 2 hr [1, 11]: 62200 ng/g
concentration at 3 h [1, 11]: 48800 ng/g
concentration at 5 h [1, 11]: 34000 ng/g
concentration at 8 h [1, 11]: 20200 ng/g
concentration at 0.5 h [1, 12]: 128000 ng/g
concentration at 1 h [1, 12]: 114000 ng/g
concentration at 1.5 h [1, 12]: 118000 ng/g
concentration at 2 hr [1, 12]: 85400 ng/g
concentration at 3 h [1, 12]: 70800 ng/g
concentration at 5 h [1, 12]: 57400 ng/g
concentration at 8 h [1, 12]: 26600 ng/g
concentration at 0.5 h [1, 13]: 76300 ng/g
concentration at 1 h [1, 13]: 70100 ng/g
concentration at 1.5 h [1, 13]: 71500 ng/g
concentration at 2 hr [1, 13]: 52700 ng/g
concentration at 3 h [1, 13]: 38700 ng/g
concentration at 5 h [1, 13]: 24500 ng/g
concentration at 8 h [1, 13]: 11600 ng/g
concentration at 0.5 h [1, 14]: 38000 ng/g
concentration at 1 h [1, 14]: 39600 ng/g
concentration at 1.5 h [1, 14]: 37400 ng/g
concentration at 2 hr [1, 14]: 36700 ng/g
concentration at 3 h [1, 14]: 28800 ng/g
concentration at 5 h [1, 14]: 18000 ng/g
concentration at 8 h [1, 14]: 6930 ng/g
concentration at 0.5 h [1, 15]: 11600 ng/mL
concentration at 1 h [1, 15]: 12200 ng/mL
concentration at 1.5 h [1, 15]: 10700 ng/mL
concentration at 2 hr [1, 15]: 8470 ng/mL
concentration at 3 h [1, 15]: 6300 ng/mL
concentration at 5 h [1, 15]: 4620 ng/mL
concentration at 8 h [1, 15]: 1870 ng/mL
AUC(0-t) ([1]; plasma, ICR mice, p.o. 100 mg/kg, read-out: AUC0-t Plasma): 47400 ng·h/mL
concentration at 0.5 h [1, 16]: 91600 ng/g
concentration at 1 h [1, 16]: 98100 ng/g
concentration at 1.5 hr [1, 16]: 84900 ng/g
concentration at 2 hr [1, 16]: 67300 ng/g
concentration at 3 h [1, 16]: 57600 ng/g
concentration at 5 h [1, 16]: 43700 ng/g
concentration at 8 h [1, 16]: 23400 ng/g
concentration at 1.5 hr [1, 17]: 10200 ng/g
concentration at 2 hr [1, 17]: 12900 ng/g
concentration at 3 h [1, 17]: 14800 ng/g
concentration at 5 h [1, 17]: 11500 ng/g
concentration at 0.5 h [1, 18]: 26500 ng/g
concentration at 1 h [1, 18]: 48100 ng/g
concentration at 1.5 hr [1, 18]: 48800 ng/g
concentration at 2 hr [1, 18]: 40100 ng/g
concentration at 3 h [1, 18]: 39800 ng/g
concentration at 5 h [1, 18]: 25900 ng/g
concentration at 8 h [1, 18]: 12800 ng/g
Content (%) 60? (after 3 weeks) ([2]; 60?, 3 weeks): 87.4%
Content (%) Initial ([2]; initial): 98.1%
Content (%) Room temperature (after 3 weeks) ([2]; room temperature, 3 weeks): 98.0%
Lethal dose 50 [3]: 209 mg/kg
Kp [4]: 8.82
AUC(0-inf) [5, 19]: 9320 ± 280 ng·h/mL
AUC(0-t) [5, 19]: 7520 ± 220 ng·h/mL
Cmax [5, 19]: 4180 ± 290 ng/mL
Tmax [5, 19]: 0 h
half-life [5, 19]: 2.05 ± 1.55 h
AUC(0-t) [5, 20]: 52700 ± 28700 ng·h/mL
Cmax [5, 20]: 9080 ± 4500 ng/mL
Tmax [5, 20]: 2.13 ± 0.63 h
BA (%) ([5]; p.o. 100 mg/kg, calculated by ratio of AUC0-t): 70.05%
Solubility relative to the hydrochloride ([6]; distilled water): about 2 times
solubility ([6]; room temperature, water): 190 mg/mL (≈ 470 mM)
MNPCE number vs intact control [7]: not detected significant change
